Values quoted from earlier work as cited in patent US12642292B2, “Multi-compartment oral pouched product” (NICOVENTURES TRADING LIMITED, priority 2021, dated 2026).

Columns and labels:
[1] = for solubility in water / aqueous environment: for CBD aqueous environment (e.g., saliva)
[2] = when isolated; converts via isomerization into trans-bixin

SMILES | solubility in water / aqueous environment [1] | solubility in fats and alcohols ([1]; fats and alcohols) | chemical stability [2]
CC(/C=C/C=C(C)/C=C/C(=O)O)=C\C=C\C=C(C)\C=C\C=C(C)\C=C\C(=O)O (stereo in doubt) [norbixin, (2E,4E,6E,8E,10E,12E,14E,16E,18E)-4,8,13,17-tetramethylicosa-2,4,6,8,10,12,14,16,18-nonaenedioic acid] | water soluble |  | 
C=C(C)[C@@H]1CCC(C)=C[C@H]1c1c(O)cc(CCCCC)cc1O [CBD, cannabidiol, reference compound] | insoluble in an aqueous environment |  | 
COC(=O)/C=C/C(C)=C\C=C\C(C)=C\C=C\C=C(C)\C=C\C=C(C)\C=C\C(=O)O [bixin] | insoluble in water | soluble in fats and alcohols | chemically unstable when isolated
